According to ChEMBL document CHEMBL4819065, “Gelstriamine A, a Triamino Monoterpene Indole Alkaloid with a Caged 6/5/7/6/6/5 Scaffold and Analgesic Alkaloids from Gelsemium elegans Stems” (2021):
Calls of active or inactive are those of the source. The rule behind the calls is not given here.

What follows are compounds tested on Mus musculus (assay: Analgesic activity in Kunming mouse assessed as inhibition of acetic acid-induced writhing at 0.04 mg/kg, ip pretreated with compound for 30 mins followed by acetic acid challenge and measured after 30 mins). Conditions: 1 h, time 60 min.
Type: functional

Compound | inhibition in vivo at 0.04 mg/kg
C/C=C1\C[N@+](C)([O-])[C@H]2C[C@@]3(C(=O)Nc4ccccc43)[C@H]3C[C@@H]1[C@@H]2CO3 | 67.6%

The compounds below were run on Mus musculus (assay: Analgesic activity in Kunming mouse assessed as inhibition of acetic acid-induced writhing at 0.2 mg/kg, ip pretreated with compound for 30 mins followed by acetic acid challenge and measured after 30 mins). Conditions: 1 h, time 60 min.
Type: functional

Compound | inhibition in vivo at 0.2 mg/kg
C/C=C1\C[N@+](C)([O-])[C@H]2C[C@@]3(C(=O)Nc4ccccc43)[C@H]3C[C@@H]1[C@@H]2CO3 | 76.1%

The compounds below were run on Mus musculus (assay: Analgesic activity in Kunming mouse assessed as inhibition of acetic acid-induced writhing at 1 mg/kg, ip pretreated with compound for 30 mins followed by acetic acid challenge and measured after 30 mins). Conditions: 1 h, time 60 min.
Type: functional

Compound | inhibition in vivo at 1 mg/kg
CC[C@@]12OC(=O)N[C@@H]1N(C)[C@H]1C[C@@]3(C(=O)N(OC)c4ccccc43)[C@H]3C[C@@H]2[C@@H]1CO3 | 64.7%

These compounds were tested on Mus musculus (assay: Analgesic activity in Kunming mouse assessed as inhibition of acetic acid-induced writhing at 5 mg/kg, ip pretreated with compound for 30 mins followed by acetic acid challenge and measured after 30 mins). Conditions: time 60.0 min.
Type: functional, organism-based

Compound | Activity
CC[C@@]12OC(=O)N[C@@H]1N(C)[C@H]1C[C@@]3(C(=O)N(OC)c4ccccc43)[C@H]3C[C@@H]2[C@@H]1CO3 | Active
CON1C(=O)[C@@]2(C[C@@H]3N[C@](CO)([C@@H](C)O)[C@@H]4C[C@H]2OC[C@H]34)c2ccccc21 | Active
C=C[C@@]12CN[C@@H]3C[C@]14C(=Nc1ccccc14)[C@H]1C[C@@H]2[C@@H]3CO1 | Active
C=CC12CN[C@@H]3[C@H]4CO[C@H](CC41)[C@]1(C(=O)Nc4ccccc41)[C@@H]32 | Active
C/C=C1\CN[C@H]2C[C@@]3(C(=O)N(OC)c4cc(OC)ccc43)[C@H]3C[C@@H]1[C@@H]2CO3 | Active
C/C=C1\C[N@@+]2([O-])[C@H]3C[C@@H]1[C@@H](CO)[C@@H]2Cc1c3[nH]c2ccccc12 | Active
C/C=C1\CN2[C@H]3C[C@@H]1[C@@H](CO)[C@@H]2Cc1c3[nH]c2ccccc12 | Active
C/C=C1\C[N@+](C)([O-])[C@H]2C[C@@]3(C(=O)N(OC)c4cc(O)ccc43)[C@H]3C[C@@H]1[C@@H]2CO3 | Active
COc1ccc2c(c1)N(OC)C(=O)[C@@]21C[C@@H]2N[C@](CO)([C@@H](C)O)[C@@H]3C[C@H]1OC[C@H]23 | Active
CC[C@@]1(CO)N[C@H]2C[C@@]3(C(=O)N(OC)c4ccccc43)[C@H]3C[C@@H]1[C@@H]2CO3 | Active
C/C=C1\CN(C)[C@H]2C[C@@]3(C(=O)N(OC)c4cc(O)ccc43)[C@H]3C[C@@H]1[C@@H]2CO3 | Active
C/C=C1\C[N@+](C)([O-])[C@H]2C[C@@]3(C(=O)N(OC)c4ccccc43)[C@H]3C[C@@H]1[C@@H]2CO3 | Active
C/C=C1\CN2[C@H]3C[C@@H]1[C@H](CO)[C@@H]2Cc1c3[nH]c2ccccc12 | Active
c1ccc2[nH]c(-c3cc4c(cn3)CCCC4)cc2c1 | Active
C/C=C1\C[N@+](C)([O-])[C@H]2C[C@@]3(C(=O)Nc4ccccc43)[C@H]3C[C@@H]1[C@@H]2CO3 | Active
C/C=C1\CN(C)[C@H]2C[C@@]3(C(=O)Nc4ccccc43)[C@H]3C[C@@H]1[C@@H]2CO3 | Active
C/C=C1\CN(C)[C@H]2C[C@@]3(C(=O)N(OC)c4ccccc43)[C@H]3C[C@@H]1[C@@H]2CO3 | Active
